Laboratory results: patent US20170007595A1, “NSD3 INHIBITORS FOR TREATMENT OF CANCERS” (THE BRIGHAM AND WOMEN'S HOSPITAL, INC., priority 2014, published 2017)

Tests used:
macrophages = conditions: cited from earlier work
[1] = test system: 1221 cells (NSD3-NUT-positive NMC); assay: high throughput 384-well immunofluorescence analysis (keratin, Ki-67, cell number) of 1221 NMC cells; format: cell-based, human; conditions: 72 h, dose-dependent
Method: For TC-797, Per403, and 8645 cells, 7×10^6 cells were transfected with 50 nM siRNA using Nucleofector II (Lonza, Basel, Switzerland) and Amaxa solution R and plated in 100 mm cell culture dish. 1221 cells were transfected using RNAi-MAX (Invitrogen) using the manufacturer's protocol. Briefly, reverse transfection procedure was used to deliver 50 nM siRNA to 33×10^4 cells in a 6 well plate. Cells were analyzed for mRNA levels 24 h after transfection. Sequences of siRNA used were: siControl, ON-TARGET plus siRNA #1 (Dharmacon, Cat # D-001810-01-20), siNUT-1 (targeting coding sequence) […] (SEQ ID NO: 57), siNUT-2 (targeting the 3′ UTR) […] (SEQ ID NO: 58), siBRD4 5′ siGENOME Human BRD4 (Dharmacon Cat # D-004937-02), siBRD4 3′ […] (SEQ ID NO: 59), siNSD3-6 ON-TARGETplus Human WHSC1L1 (54904) (Dharmacon Cat # J-012875-06), siNSD3-7, ON-TARGETplus Human WHSC1L1 (54904) siRNA (Dharmacon Cat # J-012875-07), siNSD3 3′-1 […] (SEQ ID NO: 15), si NSD3 3′-2 […] […]
Cells were transfected in 384 well format using 50 nM control siRNA (above), NSD3 siRNA (above), BRD4 siRNA, and NUT siRNA (above), as described (6), or a dose range of JQ1 treatment. […] Each condition was performed in triplicate in 384-well plate format in three separate experiments, where wells were analyzed using MetaXpress with Multi Wavelength Cell Scoring for cell number, average keratin fluorescence pixel intensity, and % Ki-67 per well. […]

BET Bromodomains = conditions: cited from earlier work
[2] = target: T1, NSD3 (endogenous, wild type) (human, UniProt Q9BZ95 1-1437, limits assumed); assay: anti-HA co-immunoprecipitation from C33A-6TR lysates, Western blot with anti-NSD3
T1 construct: Endogenous protein of cell lysates detected with an anti-NSD3 antibody; also called wild type NSD3; WHSC1L1
T1 sequence: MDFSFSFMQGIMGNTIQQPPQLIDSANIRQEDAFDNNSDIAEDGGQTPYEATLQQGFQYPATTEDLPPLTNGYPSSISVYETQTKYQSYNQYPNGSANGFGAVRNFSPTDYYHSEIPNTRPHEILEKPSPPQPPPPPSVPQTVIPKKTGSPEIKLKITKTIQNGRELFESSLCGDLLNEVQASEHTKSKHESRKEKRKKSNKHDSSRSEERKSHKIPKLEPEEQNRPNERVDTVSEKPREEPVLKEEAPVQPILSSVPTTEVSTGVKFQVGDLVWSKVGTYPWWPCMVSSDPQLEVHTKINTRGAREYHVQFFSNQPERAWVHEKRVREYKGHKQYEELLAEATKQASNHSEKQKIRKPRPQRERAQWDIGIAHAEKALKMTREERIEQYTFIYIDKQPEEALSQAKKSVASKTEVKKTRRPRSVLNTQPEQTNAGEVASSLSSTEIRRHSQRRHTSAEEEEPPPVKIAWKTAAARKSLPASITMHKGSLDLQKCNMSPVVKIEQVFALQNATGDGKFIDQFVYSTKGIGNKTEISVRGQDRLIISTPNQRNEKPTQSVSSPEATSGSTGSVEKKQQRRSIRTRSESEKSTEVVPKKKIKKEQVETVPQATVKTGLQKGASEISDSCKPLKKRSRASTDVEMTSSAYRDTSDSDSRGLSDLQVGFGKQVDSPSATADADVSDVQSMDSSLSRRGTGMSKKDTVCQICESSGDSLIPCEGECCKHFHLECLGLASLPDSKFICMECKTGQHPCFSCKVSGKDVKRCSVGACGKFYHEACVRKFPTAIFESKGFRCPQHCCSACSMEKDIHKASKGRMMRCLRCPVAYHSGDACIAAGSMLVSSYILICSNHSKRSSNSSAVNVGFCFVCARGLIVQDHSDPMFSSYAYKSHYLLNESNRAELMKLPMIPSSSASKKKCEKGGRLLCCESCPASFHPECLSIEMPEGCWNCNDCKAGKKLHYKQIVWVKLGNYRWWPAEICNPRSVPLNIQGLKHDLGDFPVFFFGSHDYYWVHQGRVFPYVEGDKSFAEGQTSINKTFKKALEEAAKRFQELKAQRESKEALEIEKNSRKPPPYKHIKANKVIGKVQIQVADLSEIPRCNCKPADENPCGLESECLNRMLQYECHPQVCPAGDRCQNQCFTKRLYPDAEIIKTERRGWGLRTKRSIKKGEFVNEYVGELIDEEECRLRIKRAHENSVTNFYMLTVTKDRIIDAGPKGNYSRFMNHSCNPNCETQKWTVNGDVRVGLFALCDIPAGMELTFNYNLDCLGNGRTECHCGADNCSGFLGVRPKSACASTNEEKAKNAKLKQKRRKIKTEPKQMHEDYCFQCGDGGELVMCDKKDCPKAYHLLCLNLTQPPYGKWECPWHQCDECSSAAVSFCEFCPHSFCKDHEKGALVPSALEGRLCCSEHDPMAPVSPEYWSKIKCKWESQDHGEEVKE
Method: For co-immunoprecipitation experiments of HA-tagged proteins, C33A-6TR cells stably expressing HA-tagged constructs under a Tet-inducible promoter were used. Protein extracts were prepared 24 h after transfection or induction with Doxycycline (1 μg/ml). Cells were lysed in lysis buffer (50 mM Tris-HCl [pH 7.5], 150 mM NaCl, 0.5% Nonidet P-40) with freshly added protease inhibitors (Roche Complete, EDTA free protease inhibitor cocktail, Roche, Indianapolis, Ind.). Extracts were adjusted for protein concentration and 10% of extracts were used as Input Immunoprecipitations were performed using 15 μl of HA-resin (Sigma A2095). Extracts were incubated overnight at 4° C., and precipitated proteins were detected by Western blot analysis.

CCNC(=O)C[C@@H]1N=C(c2ccc(Cl)cc2)c2cc(OC)ccc2-n2c(C)nnc21 [I-BET-762]
production of proinflammatory proteins by macrophages (macrophages): suppresses the production of proinflammatory proteins

Cc1sc2c(c1C)C(c1ccc(Cl)cc1)=N[C@@H](CC(=O)OC(C)(C)C)c1nnc(C)n1-2 [JQ1, (S)-tert-butyl 2-(4-(4-chlorophenyl)-2,3,9-trimethyl-6H-thieno[3,2-f][1,2,4]triazolo[4,3-a][1,4]diazepin-6-yl)acetate]
differentiation (keratin intensity) ([1]; dose range of JQ1 vs DMSO): results in differentiation
proliferation (cell number) ([1]; increasing concentrations of JQ1 vs DMSO): arrested proliferation

O=c1cc(N2CCOCC2)oc2c(-c3ccccc3)cccc12 [LY294002]
BET inhibition (BET Bromodomains): reported to be a BET inhibitor

B1: HA-tagged NUT (full length) (other)
chain: MASDGASALPGPDMSMKPSAALSPSPALPFLPPTSDPPDHPPREPPPQPIMPSVFSPDNPLMLSAFPSSLLVTGDGGPCLSGAGAGKVIVRVKTEGGSAEPSQTQNFILTQTALNSTAPGTPCGGLEGPAPPFVTASNVKTILPSKAVGVSQEGPPGLPPQPPPPVAQLVPIVPLEKAWPGPHGTTGEGGPVATLSKPSLGDRSKISKDVYENFRQWQRYKALARRHLSQSPDTEALSCFLIPVLRSLARLKPTMTLEEGLPLAVQEWEHTSNFDRMIFYEMAERFMEFEAEEMQIQNTQLMNGSQGLSPATPLKLDPLGPLASEVCQQPVYIPKKAASKTRAPRRRQRKAQRPPAPEAPKEIPPEAVKEYVDIMEWLVGTHLATGESDGKQEEEGQQQEEEGMYPDPGLLSYINELCSQKVFVSKVEAVIHPQFLADLLSPEKQRDPLALIEELEQEEGLTLAQLVQKRLMALEEEEDAEAPPSFSGAQLDSSPSGSVEDEDGDGRLRPSPGLQGAGGAACLGKVSSSGKRAREVHGGQEQALDSPRGMHRDGNTLPSPSSWDLQPELAAPQGTPGPLGVERRGSGKVINQVSLHQDGHLGGAGPPGHCLVADRTSEALPLCWQGGFQPESTPSLDAGLAELAPLQGQGLEKQVLGLQKGQQTGGRGVLPQGKEPLAVPWEGSSGAMWGDDRGTPMAQSYDQNPSPRAAGERDDVCLSPGVWLSSEMDAVGLELPVQIEEVIESFQVEKCVTEYQEGCQGLGSRGMISLGPGETLVPGDTESSVIPCGGTVAAAALEKRNYCSLPGPLRANSPPLRSKENQEQSCETVGHPSDLWAEGCFPLLESGDSTLGSSKETLPPTCQGNLLIMGTEDASSLPEASQEAGSRGSFSPLLETIEPVNILDVKDDCGLQLRVSEDTCPLNVHSYDPQGEGRVDPDLSKPKNLAPLQESQESYTTGTPKATSSHQGLGSTLPRRGTRNAIVPRETSVSKTHRSADRAKGKEKKKKEAEEEDEELSNFAYLLASKLSLSPREHPLSPHHASGGQGSQRASHLLPAGAKGPSKLPYPVAKSGKRALAGGPAPTEKTPHSGAQLGVPREKPLALGVVRPSQPRKRRCDSFVTGRRKKRRRSQ
notes: also called HA-NUT; not shown: N-terminal HA tag
binding result [2]: no binding
